Activity calls are given as the source filed them. The calls are words filed in the database; no cut-off is given here.
What was measured:
[1] = tested on: Pseudomonas aeruginosa; test: Antibacterial activity against Pseudomonas aeruginosa ATCC 27853 at 62.5 uM after 24 hrs; format: functional, organism-based
[2] = tested on: Staphylococcus aureus; test: Antibacterial activity against Staphylococcus aureus ATCC 25923 at 62.5 uM after 24 hrs; format: functional, organism-based
[3] = tested on: Escherichia coli; test: Antibacterial activity against Escherichia coli ATCC 25922 at 62.5 uM after 24 hrs; format: functional, organism-based
[4] = Antioxidant activity assessed as DPPH free radical scavenging activity at 6.25 uM after 30 mins in dark by spectrophotometric method relative to control; format: functional
[5] = tested on: MCF7; test: Cytotoxicity against human MCF7 cells assessed as reduction in cell viability after 48 hrs by MTT assay; format: functional, cell-based; conditions: MCF7, 48 h
[6] = tested on: MIA PaCa-2; test: Cytotoxicity against human MIAPaCa2 cells assessed as reduction in cell viability after 48 hrs by MTT assay; format: functional, cell-based; conditions: MIA PaCa-2, 48 h
[7] = Antioxidant activity assessed as DPPH free radical scavenging activity at 12.5 uM after 30 mins in dark by spectrophotometric method relative to control; format: functional
[8] = tested on: PC-3; test: Cytotoxicity against human PC3 cells assessed as reduction in cell viability after 48 hrs by MTT assay; format: functional, cell-based; conditions: PC-3, 48 h
[9] = Antioxidant activity assessed as DPPH free radical scavenging activity at 25 uM after 30 mins in dark by spectrophotometric method relative to control; format: functional
[10] = Antioxidant activity assessed as DPPH free radical scavenging activity at 100 uM after 30 mins in dark by spectrophotometric method relative to control; format: functional
[11] = Antioxidant activity assessed as DPPH free radical scavenging activity after 30 mins in dark by spectrophotometric method; format: functional
[12] = Antioxidant activity assessed as DPPH free radical scavenging activity at 50 uM after 30 mins in dark by spectrophotometric method relative to control; format: functional
[13] = tested on: T47D; test: Cytotoxicity against human T47D cells; format: functional, cell-based

Row | Structure (SMILES) | EC50 [11] | Activity [1] | Activity [2] | Activity [3] | Activity [4] | IC50 [5] | IC50 [6] | Activity [7] | IC50 [8] | Activity [9] | Activity [10] | Activity [12] | IC50 [13]
1 | O=C(O)c1cn(C2CC2)c2cc(N3CCNCC3)c(F)cc2c1=O |  | Active | Active | Active |  |  |  |  |  |  |  |  | 
2 | CCC/C=C/[C@@H]1OC(=O)c2cc(O)cc(O)c2[C@@H]1O | 10.3 µM | inactive | inactive | inactive | 34.3% | > 50 µM | > 50 µM | 55% | > 50 µM | 58% | 61% | 59% | 
3 | O=C1O[C@H]([C@@H](O)CO)C(O)=C1O [ASCORBIC ACID] | 6.2 µM |  |  |  | 52.7% |  |  | 60.9% |  | 76.5% | 87.8% | 85.8% | 
4 | CC(=O)O[C@H]1C(=O)[C@@]2(C)[C@H]([C@H](OC(=O)c3ccccc3)[C@]3(O)C[C@H](OC(=O)[C@H](O)[C@@H](NC(=O)c4ccccc4)c4ccccc4)C(C)=C1C3(C)C)[C@]1(OC(C)=O)CO[C@@H]1C[C@@H]2O [PACLITAXEL] |  |  |  |  |  |  | 0.006 µM |  | 0.007 µM |  |  |  | 

Now from value to molecule, other results behind:

Row | EC50 [11] | Structure (SMILES) | Activity [1] | Activity [2] | Activity [3] | Activity [4] | IC50 [5] | IC50 [6] | Activity [7] | IC50 [8] | Activity [9] | Activity [10] | Activity [12] | IC50 [13]
5 | > 100 µM | CCC[C@@H]1C[C@H](O)[C@@H](OC)/C=C/C=C\C(=O)O1 | inactive | inactive | inactive | 2.37% | > 50 µM | 34 µM | 4.04% | 22 µM | 7.12% | 10% | 8.13% | 
6 | 27.5 µM | CCC[C@H]1OC(=O)/C=C\C=C\[C@H](O)[C@@H](O)[C@@H]1[C@H](C)COC(=O)c1ccc(O)cc1 | inactive | inactive | inactive | 22.1% | 30 µM | 20 µM | 26.8% | 14 µM | 48.3% | 63% | 59% | 
7 | > 100 µM | CCC[C@@H]1C[C@H](O)[C@@H](O)/C=C/C=C\C(=O)O1 | inactive | inactive | inactive | 35% | 29 µM | 32 µM | 36.6% | 18 µM | 37.4% | 39.1% | 38.5% | 7 µM

Reference: ChEMBL document CHEMBL4118177, “Valproic acid induces three novel cytotoxic secondary metabolites in Diaporthe sp., an endophytic fungus from Datura inoxia Mill” (Bioorg Med Chem Lett, 2018)
